From patent US20240376163A1, “PEPTIDE FOR INHIBITING CALCINEURIN AND USE THEREOF” (Seoul National University R&DB Foundation, priority 2023, published 2024)

System: Jurkat T cells
Experiment: mRNA sequencing of activated Jurkat T cells
Type: cell-based, human

C=CC[C@@H]1/C=C(\C)C[C@H](C)C[C@H](OC)[C@H]2O[C@@](O)(C(=O)C(=O)N3CCCC[C@H]3C(=O)O[C@H](/C(C)=C/[C@@H]3CC[C@@H](O)[C@H](OC)C3)[C@H](C)[C@@H](O)CC1=O)[C@H](C)C[C@@H]2OC [FK506, Tacrolimus, reference compound]
PHF7 FPKM (P+I): 3.968 FPKM | PHLDA1 FPKM (P+I): 65.703 FPKM | PIDD1 FPKM (P+I): 5.28 FPKM | PIM3 FPKM (P+I): 42.827 FPKM | PKIA FPKM (P+I): 13.962 FPKM | PLAU FPKM (P+I): 45.171 FPKM | PLEKHO1 FPKM (P+I): 47.519 FPKM | PLK3 FPKM (P+I): 5.257 FPKM | PMAIP1 FPKM (P+I): 26.095 FPKM | PMEPA1 FPKM (P+I): 3.548 FPKM | PODXL FPKM (P+I): 1.86 FPKM | POU3F2 FPKM (P+I): 1.044 FPKM | PPFIBP1 FPKM (P+I): 12.205 FPKM | PPM1H FPKM (P+I): 4.492 FPKM | PRKCA FPKM (P+I): 14.104 FPKM | PTK2 FPKM (P+I): 13.215 FPKM | PTPN22 FPKM (P+I): 6.37 FPKM | PTPRE FPKM (P+I): 14.031 FPKM | PWWP2B FPKM (P+I): 2.769 FPKM | PXMP2 FPKM (P+I): 5.624 FPKM | RAG1 FPKM (P+I): 0.251 FPKM | RAG2 FPKM (P+I): 0.173 FPKM | RAP1GAP2 FPKM (P+I): 0.368 FPKM | RAP1GAP FPKM (P+I): 1.878 FPKM | RDH10 FPKM (P+I): 5.856 FPKM | REL FPKM (P+I): 4.749 FPKM | RELB FPKM (P+I): 29.337 FPKM | RGS3 FPKM (P+I): 2.142 FPKM | RGS16 FPKM (P+I): 1.172 FPKM | RMI1 FPKM (P+I): 8.984 FPKM | RORB FPKM (P+I): 3.782 FPKM | S1PR1 FPKM (P+I): 0.737 FPKM | SAMD1 FPKM (P+I): 15.561 FPKM | SECISBP2L FPKM (P+I): 13.57 FPKM | SELPLG FPKM (P+I): 5.062 FPKM | SEMA7A FPKM (P+I): 26.567 FPKM | SERPINB2 FPKM (P+I): 2.905 FPKM | SERPINE1 FPKM (P+I): 6.785 FPKM | SH2B3 FPKM (P+I): 13.899 FPKM | SH2D5 FPKM (P+I): 1.469 FPKM | SH3BGRL3 FPKM (P+I): 408.163 FPKM | SH3RF2 FPKM (P+I): 27.941 FPKM | SHC4 FPKM (P+I): 0.663 FPKM | SIT1 FPKM (P+I): 48.56 FPKM | SIX6 FPKM (P+I): 15.688 FPKM | SLC2A3 FPKM (P+I): 45.525 FPKM | SLC2A4RG FPKM (P+I): 2.367 FPKM | SLC7A5 FPKM (P+I): 207.842 FPKM | SLC25A45 FPKM (P+I): 3.26 FPKM | SLCO3A1 FPKM (P+I): 3.481 FPKM | SLIT1 FPKM (P+I): 2.6 FPKM | SMIM14 FPKM (P+I): 7.677 FPKM | SOCS1 FPKM (P+I): 9.708 FPKM | SOCS3 FPKM (P+I): 8.922 FPKM | SOSTDC1 FPKM (P+I): 8.472 FPKM | SPRY2 FPKM (P+I): 16.882 FPKM | SREBF1 FPKM (P+I): 14.076 FPKM | ST3GAL6-AS1 FPKM (P+I): 9.039 FPKM | ST8SIA4 FPKM (P+I): 11.077 FPKM | STARD4 FPKM (P+I): 20.118 FPKM | STAT1 FPKM (P+I): 611.139 FPKM | STAT5A FPKM (P+I): 3.347 FPKM | STX11 FPKM (P+I): 2.733 FPKM | SYTL1 FPKM (P+I): 15.004 FPKM | TBC1D10C FPKM (P+I): 23.871 FPKM | TBC1D20 FPKM (P+I): 17.7 FPKM | TBX21 FPKM (P+I): 24.784 FPKM | THY1 FPKM (P+I): 3.994 FPKM | TIMP2 FPKM (P+I): 1.948 FPKM | TM4SF1 FPKM (P+I): 0.439 FPKM | TM7SF3 FPKM (P+I): 29.483 FPKM | TMEM229B FPKM (P+I): 6.813 FPKM | TMTC4 FPKM (P+I): 2.677 FPKM | TNFRSF4 FPKM (P+I): 2.933 FPKM | TNFRSF12A FPKM (P+I): 8.559 FPKM | TNFRSF14 FPKM (P+I): 12.35 FPKM | TNFSF9 FPKM (P+I): 2.568 FPKM | TNRC6C FPKM (P+I): 4.711 FPKM | TNS3 FPKM (P+I): 0.678 FPKM | TRAF1 FPKM (P+I): 11.176 FPKM | TRAT1 FPKM (P+I): 7.968 FPKM | TRIM22 FPKM (P+I): 2.908 FPKM | TSHR FPKM (P+I): 1.535 FPKM | TSPAN2 FPKM (P+I): 2.414 FPKM | TSPAN7 FPKM (P+I): 44.718 FPKM | TTC28 FPKM (P+I): 2.798 FPKM | TUBB2A FPKM (P+I): 7.594 FPKM | TUBB3 FPKM (P+I): 9.713 FPKM | UHRF1BP1L FPKM (P+I): 7.474 FPKM | USP30-AS1 FPKM (P+I): 6.464 FPKM | VANGL1 FPKM (P+I): 9.553 FPKM | VASH2 FPKM (P+I): 5.761 FPKM | VGF FPKM (P+I): 59.749 FPKM | XAF1 FPKM (P+I): 15.924 FPKM | XBP1 FPKM (P+I): 43.828 FPKM | XYLB FPKM (P+I): 1.506 FPKM | YBX2 FPKM (P+I): 1.555 FPKM | ZC3H12A FPKM (P+I): 13.36 FPKM | CD27 and CD70 expression (upon T-cell activation): inhibited CD27 and CD70 | RNA levels of representative T-cell activation markers (IL2, IL3, NFATC1, CCL4, CCL20, CXCL8) (upon T-cell activation): reduced RNA levels of representative T-cell activation markers
